The values below come from PMC12140054, “Small glycomimetic antagonists of the cytomegalovirus glycoprotein UL141 prevent binding to TRAIL death receptor” (The Journal of Biological Chemistry, 2025).

What is called Kd is the free concentration of one partner at which half of the binding sites on the other are occupied at equilibrium, for simple one-to-one binding. The term koff denotes a measure of how fast the partners let go of each other. What is called kon is the second-order rate constant of association.

Like-named read-outs stand apart in the source and are kept apart here. Where only a bound is given, the exact number is not on record here.

In data set [1] the test system is human foreskin fibroblasts HFF-BJ (ATCC CRL-2522 cells). As to the kind of experiment: MTT cytotoxicity / cell viability assay. The data set is classed as cell-based. The note with it: 0.1 to 50 μM, 72 h. The text has this: Cell viability as visualized by fold change of formazan-positive cells normalized to the untreated control and DMSO. Viability reduced below 40% represents the cytotoxic zone, below the dotted line in each plot. The number of biological replicates is indicated.
Human foreskin fibroblasts (HFF), a type of primary fibroblast derived from neonatal foreskin tissue, were chosen for this bioassay due to their distinct advantages in studies involving HCMV. For instance, the HHF cells provide a relevant and effective platform due to their unique susceptibility to HCMV infection, ability to mimic human immune responses, and relevance to clinical scenarios. […] HFF cells were incubated with each compound at concentrations ranging from 0.1 to 50 μM and any possible cytotoxic effect was monitored for 72 h. Tested compounds were dissolved in dimethyl sulfoxide (DMSO). […] The cytotoxic effect (CTE) is represented here as the concentration that causes a reduction of more than 40% in the number of viable cells.
Cells were seeded in a 96-well plate at a density of 1 × 10^4 cells per well for the measurement of cytotoxicity of the compounds (without UVA irradiation). […] Cells after treatment were incubated for […]. Untreated cells were considered negative control, and DMSO-treated cells (at appropriate concentration) were considered vehicle control. The classical MTT assay (3-(4,5-dimethyl thiazolyl-2)-2,5-diphenyltetrazolium bromide) ([68]) was used to measure cellular metabolic activity as an indicator of cell viability, proliferation, and cytotoxicity. Briefly, 0.5 mg/ml MTT solution was dispensed in each well of the 96-well plate and incubated for 4 h. Afterward, the MTT solution was removed and 200 μl of 100% DMSO was added to each well and the plate was placed on a microplate shaker for 5 min to dissolve the formazan granules. The absorbance was measured at 550 nm using a spectrophotometer. DMSO and MTT were purchased from Thermo Fisher Scientific. The darker the solution, the greater the number of viable, metabolically active cells. All experimental compounds were measured using at least 2 to 3 replicates for each and the averaged values from three independent experiments (n = 3) are presented. Cell viability was visualized by fold change of formazan-positive cells normalized to the untreated control and DMSO. Viability reduced below 40% represents the cytotoxic zone. All evaluations were performed using GraphPad Prism 9.5.0 (GraphPad Software, LLC), if other software was not explicitly mentioned.

For data set [2], the target named is T1, HCMV UL141 (Human cytomegalovirus, UniProt Q6RJQ3).
T1 construct: we expressed and purified the full-length recombinant UL141 (amino acids 30–300); made in house
As to the kind of experiment: biochemical. The data set is classed as binding. To be noted: for Rmax / koff / kon: UL141 immobilized, substance as analyte. Here is the method: (§1) To prepare HCMV UL141 for binding studies, biotinylation was performed using the BiotinTag Micro Biotinylation Kit (Sigma-Aldrich). Purified UL141 protein (50 μg in 50 μl) was mixed with 50 μl of BiotinTag reaction buffer provided in the kit. Sulfo-NHS-Biotin reagent was freshly prepared by dissolving the vial contents in 1 ml of sterile water. A calculated volume of the biotin reagent was added to achieve a 20:1 M excess of biotin to protein. The reaction mixture was incubated for 30 min at room temperature with gentle mixing to ensure efficient labeling. Following incubation, unreacted biotin was removed using the desalting column included in the kit. The biotinylated UL141 protein was eluted in 50 mM Hepes, pH 7.5, 150 mM NaCl. Biotin incorporation was verified using a colorimetric biotin quantification assay (e.g., HABA assay). The biotinylated protein was then quantified spectrophotometrically using a NanoDrop instrument and concentrated to the desired level for Biacore or ELISA binding studies. The biotinylated protein was stored at 4 °C for short-term use or −80 °C for long-term storage to maintain stability.
(§2) The sensor surface of an SA chip (Cytiva) was preconditioned with HBS-EP buffer (10 mM Hepes, 150 mM NaCl, 3 mM EDTA, 0.005% Tween-20) to stabilize the baseline and remove any loosely bound streptavidin. Before use, the buffer was filtered through a 0.2 μm polystyrene filter and degassed under vacuum for 10 min to eliminate air bubbles. Biotinylated HCMV UL141 was immobilized on the SA chip, maintaining biotinylation at 0.5 to 1.5 mol per mole of protein. Excess biotin was removed via gel filtration. UL141 was injected at 30 μl/min, achieving maximum immobilization (4000–6000 RU), followed by washing with running buffer. Residual unbound proteins were optionally removed with a 2 M NaCl pulse. To ensure optimal SPR signal detection, which depends on the analyte mass bound to the ligand, relatively high amounts of ligand were immobilized on the sensor chip to achieve a significant response signal upon binding of the small compound. […] Regeneration of the chip surface, when necessary, was performed using 5 mM NaOH. Control injections of zero concentrations and duplicate injections of selected concentrations were included to validate surface regeneration. […]

The target in data set [3] is T2, HCMV UL141 (Human cytomegalovirus, UniProt Q6RJQ3).
T2 construct: we expressed and purified the full-length recombinant UL141 (amino acids 30–300); made in house
T2 sequence (Q6RJQ3 whole entry, looked up): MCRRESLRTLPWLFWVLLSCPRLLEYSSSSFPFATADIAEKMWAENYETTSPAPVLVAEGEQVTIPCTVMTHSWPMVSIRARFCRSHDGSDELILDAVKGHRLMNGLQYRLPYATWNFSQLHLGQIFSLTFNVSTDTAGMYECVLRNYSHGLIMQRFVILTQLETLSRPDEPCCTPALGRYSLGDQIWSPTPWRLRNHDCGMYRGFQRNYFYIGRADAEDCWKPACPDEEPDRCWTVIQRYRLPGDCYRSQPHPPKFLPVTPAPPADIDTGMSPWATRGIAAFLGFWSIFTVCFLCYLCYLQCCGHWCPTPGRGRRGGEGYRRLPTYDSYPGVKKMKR
As to the kind of experiment: biochemical. Format: binding. Here is the method: as §1, §2

The target of the next data set is UL141. To be noted: cited from earlier work; for Kd: UL141 (ectodomain) in solution.
Data set [4] addresses TRAIL-R2-Fc (Homo sapiens) (UniProt O14763). Put plainly: SPR. The note with it: cited from earlier work.
For another data set, the system named is VERO-E6 cells. Put plainly: Cytotoxicity on VERO-E6 cells (data not shown). The data set is classed as cell-based.
The test system of another data set is A549 cells. As to the kind of experiment: Cytotoxicity on A549 cells (data not shown). Format: cell-based.
The target in the next data set is TRAIL-R2 (Homo sapiens) (UniProt O14763). Put plainly: SPR. To be noted: cited from earlier work.
[5] abbreviates: UL141 immobilized (ligand), substance in solution (analyte), 1:1 Langmuir model, 25 °C.
[6] abbreviates: TRAIL-R2-Fc immobilized, ref ([19]).
The mark [7] stands for this setting: UL141-Fc immobilized, TRAIL-R2 in solution, ref ([17]).
Setting [8] is: 1:1 Langmuir model, listed as cmp 15.
[9] abbreviates: 1:1 Langmuir model, listed as cmp 20.
Where [10] appears, read: TRAIL-R2-Fc immobilized, UL141 in solution, ref ([19]).

Regarding `C[C@H](O)[C@H]1[C@@H](O)[C@@H](O)CN1Cc1ccc(I)cc1` [Compound 14, (2S,3R,4S)-2-((S)-1-hydroxyethyl)-1-(4-iodobenzyl)pyrrolidine-3,4-diol], the “cytotoxicity (in words)” value in data set [1] is “no cytotoxicity was detected”. The dissociation constant (Kd) at HCMV UL141 [2] (setting [5]) is 24 µM; at HCMV UL141 [2] (binding to UL141, SPR) it was 24 µM. At HCMV UL141 [2], this compound yielded an Rmax of 24. Further, at HCMV UL141 [2] (1:1 Langmuir model), the koff amounted to 0.153 s⁻¹. Further, the kon was 6370 M⁻¹ s⁻¹ on HCMV UL141 [2] (1:1 Langmuir model) and “(0.63 ± 0.002) × 10^4 M^−1s^−1” on HCMV UL141 [2] (1:1 Langmuir model, listed as cmp 14).
As for “TRAIL-R2: recombinant human TRAIL death receptor 2 ectodomain (amino acids 58–184), positive control in SPR”, in the data set with HCMV UL141 [3] (UL141 immobilized, substance as analyte), the Rmax is 872. The Kd is 5.99 nM with HCMV UL141 [3] (full-length UL141 and TRAIL-R2, SPR, read-out: affinity (KD)); 5.96 nM at UL141 (setting [6]). The dissociation rate constant (koff) with UL141 (setting [7]) was 0.00564 s⁻¹. In the data set with UL141 (setting [7]), the kon was 264000 M⁻¹ s⁻¹.
Regarding UL141 ECD (from UniProt Q6RJQ3), in data set [4], the Kd was 5.96 nM.
As to `CCCCCCCCCCCCN1C[C@H](O)[C@H](O)[C@@H]1CO` [Compound 9], the “concentration at which cytotoxicity with apoptotic properties begins” value (“concentration at which cytotoxicity” below) in the data set with VERO-E6 cells and in the data set with A549 cells was at least 5 µg/mL in each case. In addition, the “cytotoxicity (in words)” value in data set [1] is given as “unfavorable level of cytotoxicity”.
Consider `CC(O)C1C(O)C(O)CN1Cc1ccccc1` (stereo not shown) [Compound 15], for which the “cytotoxicity (in words)” value in data set [1] is reported as “no cytotoxicity was detected”. In addition, the Kd at HCMV UL141 [2] (setting [5]) is 200 µM; on HCMV UL141 [2] (binding to UL141, SPR), 199 µM. The compound further gave an Rmax on HCMV UL141 [2] of 27. The off-rate constant (koff) is 0.117 s⁻¹ at HCMV UL141 [2] (1:1 Langmuir model) and “(1.17 ± 0.004) × 10^−1 s^−1” on HCMV UL141 [2] (setting [8]). The kon on HCMV UL141 [2] (1:1 Langmuir model) was 586 M⁻¹ s⁻¹; at HCMV UL141 [2] (setting [8]), “(0.06 ± 0.002) × 10^4 M^−1s^−1”.
Consider `CC1C(O)C(O)CN1Cc1ccc(I)cc1` (stereo not shown) [Compound 20], for which, in data set [1], the “cytotoxicity (in words)” value was “no cytotoxicity was detected”. The Kd at HCMV UL141 [2] (setting [5]) is 29.1 µM; on HCMV UL141 [2] (binding to UL141, SPR) it was 29 µM. On HCMV UL141 [2], the Rmax worked out at 21. The koff at HCMV UL141 [2] (1:1 Langmuir model) is 0.0879 s⁻¹; at HCMV UL141 [2] (setting [9]), “(0.88 ± 0.015) × 10^−1 s^−1”. The kon is 3020 M⁻¹ s⁻¹ at HCMV UL141 [2] (1:1 Langmuir model) and “(0.30 ± 0.007) × 10^4 M^−1s^−1” on HCMV UL141 [2] (setting [9]).
`CCCCCCCCCCCCCCO[C@@H]1O[C@H](CO)[C@H](O)[C@H](O)[C@H]1O` [Compound 3]: the “concentration at which cytotoxicity” value in the data set with VERO-E6 cells and in the data set with A549 cells was at least 5 µg/mL in each case.
Consider “TRAIL-R2-Fc: TRAIL-R2 recombinantly prepared as an Fc-fusion protein”, for which, at UL141 (setting [6]), the Kd was 5.96 nM. Moreover, in the data set on UL141 (setting [10]), the koff is 7.21e-05 s⁻¹ and the on-rate constant (kon) was 12100 M⁻¹ s⁻¹.
Consider `CCCCCCCCCCCCCCO[C@@H]1O[C@H](CO)[C@@H](O)[C@H](O)[C@H]1O` [Compound 1], for which the “concentration at which cytotoxicity” value in the data set on VERO-E6 cells and with A549 cells was at least 5 µg/mL throughout.
For UL141-Fc (from UniProt Q6RJQ3), the Kd in the data set with TRAIL-R2 (Homo sapiens) is 21.4 nM.
`CCCCCCCCCCCCCCO[C@H]1O[C@H](CO)[C@@H](O)[C@H](O)[C@@H]1O` [Compound 5]: the “concentration at which cytotoxicity” value in the data set with VERO-E6 cells and in the data set with A549 cells was at least 5 µg/mL each time. In addition, the “cytotoxicity (in words)” value in data set [1] is given as “unfavorable level of cytotoxicity”.
`CC(O)C1C(O)C(O)CN1Cc1ccc(I)cc1` (stereo not shown) [Compound 17]: the “cytotoxicity (in words)” value in data set [1] is “no cytotoxicity was detected”. Also, the Kd on HCMV UL141 [2] (setting [5]) amounted to 20.3 µM. The same compound returned an Rmax at HCMV UL141 [2] of 20. At HCMV UL141 [2] (1:1 Langmuir model), the koff came to 0.0508 s⁻¹ and the kon was 2500 M⁻¹ s⁻¹. Also, the koff entry on HCMV UL141 [2] (1:1 Langmuir model, listed as cmp 17) is on record as “(0.51 ± 0.001) × 10^−1 s^−1”.
